From ChEMBL document CHEMBL1128030, “Synthesis and biological evaluation of a library containing potentially 1600 amides / esters. A strategy for rapid compound generation and screening” (Bioorg Med Chem Lett, 1994)

Assays:
Interstitial collagenase = molecular target: T1, Interstitial collagenase (Homo sapiens, UniProt P03956); test: Inhibition of human recombinant MMP-I
T1 sequence (P03956 whole entry): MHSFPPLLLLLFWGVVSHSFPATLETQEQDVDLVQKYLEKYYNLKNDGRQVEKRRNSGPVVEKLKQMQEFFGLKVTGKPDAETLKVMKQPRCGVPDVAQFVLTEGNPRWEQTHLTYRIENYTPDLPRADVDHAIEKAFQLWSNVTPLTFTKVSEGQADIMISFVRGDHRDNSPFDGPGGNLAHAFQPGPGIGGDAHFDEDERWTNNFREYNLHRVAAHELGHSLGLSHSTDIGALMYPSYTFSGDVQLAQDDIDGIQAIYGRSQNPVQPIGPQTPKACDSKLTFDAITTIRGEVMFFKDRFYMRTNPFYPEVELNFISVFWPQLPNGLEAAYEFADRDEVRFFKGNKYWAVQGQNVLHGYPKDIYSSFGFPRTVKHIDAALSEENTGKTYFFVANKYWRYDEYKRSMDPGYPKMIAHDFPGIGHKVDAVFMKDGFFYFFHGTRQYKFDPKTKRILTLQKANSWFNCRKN

Neuromedin-K receptor = molecular target: T2, Neuromedin-K receptor (Homo sapiens, UniProt P29371); test: Compound was tested for its ability to displace [3H]senktide binding to human Tachykinin receptor 3 expressed in CHO cells; format: cell-based
T2 sequence (P29371 whole entry): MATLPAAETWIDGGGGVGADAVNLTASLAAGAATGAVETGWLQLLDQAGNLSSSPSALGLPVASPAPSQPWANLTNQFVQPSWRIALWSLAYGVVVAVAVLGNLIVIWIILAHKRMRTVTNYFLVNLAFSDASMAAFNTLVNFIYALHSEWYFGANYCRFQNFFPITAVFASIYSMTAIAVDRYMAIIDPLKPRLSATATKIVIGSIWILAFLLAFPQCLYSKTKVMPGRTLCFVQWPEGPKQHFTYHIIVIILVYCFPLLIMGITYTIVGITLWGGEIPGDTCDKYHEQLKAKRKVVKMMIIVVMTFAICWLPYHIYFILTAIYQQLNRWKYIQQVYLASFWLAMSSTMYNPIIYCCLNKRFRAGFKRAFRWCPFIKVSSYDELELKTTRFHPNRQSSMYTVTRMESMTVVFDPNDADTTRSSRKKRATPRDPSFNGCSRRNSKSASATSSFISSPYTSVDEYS

| IC50 (Interstitial collagenase) [µM] | IC50 (Neuromedin-K receptor) [µM] | SMILES |
| --- | --- | --- |
| 55 | – | N#Cc1ccc(C(=O)Nc2ccccc2N2CCCCC2)cc1 |
| – | 60 | O=C(/C=C/c1ccccc1)N1CCN(C(c2ccccc2)c2ccc(Cl)cc2)CC1 (configuration not stated) |
